# Experiments:
# [1] = Stability in PBS, Example 2; format: physicochemical; conditions: incubated at 37° C.
# Excerpt: To synthesize PSMA-1-MMAE-IR700 (FIG. 6A), we used a self-immolative cathespsin cleavable Vc linker to conjugate MMAE to PSMA-1-Cys-C6-Lys. IR700 was conjugated to the PSMA-1 ligand through reaction of the Lys amine (—NH2) with NHS ester as no IR700 release is required for light activation. […] Degradation of PSMA-1-MMAE-IR700 led to release of free MMAE.
# [2] = system: PSMA-positive PC3pip cells; test: In vitro cytotoxicity studies (CellTiter 96) with or without 690 nm light, PC3pip; format: cell-based, human; conditions: for ratio of absorbance to control groups (cell viability): 5 nM, 24 h
# Procedure: (§1) PC3pip and PC3flu cells were plated at 3,000 cells/well in 96-well plates. Twenty-four hours later, drugs (PSMA-1-MMAE-IR700 or PSMA-1-IR700) of different concentrations were added. After incubation at 37° C. in the dark for 24 h, cell viability was determined by CellTiter 96© aqueous one solution cell proliferation assay using absorbance at 490 nm (Promega Biotech, Madison, […]). The concentration required to inhibit 50% of cell growth (IC50) was determined by GraphPad Prism 3.0. To test the cytotoxicity of PSMA-1-MMAE-TR700 with light irradiation, drugs at a final concentration of 5 nM were added to cells and incubated in the dark for 24 h. Cells were then washed 3 times with RMPI 1640 and then irradiated with 690 nm light (L690-66-60, Marubeni America Co, New York, NY). Cells were incubated in the dark for another 24 h. Cell viability was then determined by CellTiter 96© aqueous one solution cell proliferation assay (Promega Biotech, Madison, […]). The coefficient drug interaction (CDI) was calculated as follows: CDI=AB/(A×B), where AB is the ratio of the absorbance of combination treatment groups (PSMA-1-MMAE-IR700 with light irradiation) to the absorbance of control groups; A or B is the absorbance of single treatment group (PSMA-1-MMAE-IR700 without light or PSMA-1-IR700 with light irradiation) to the absorbance of control groups. CDI <1, =1 and >1 indicates synergistic, additive or antagonistic effect.
# [3] = as above; format: cell-based, human; conditions: 24 h in the dark, no light; read-out: IC50 dark cytotoxicity, PC3pip cells
# Procedure: as §1
# [4] = system: PSMA-negative PC3flu cells; test: In vitro uptake studies, Example 2, PC3flu; format: cell-based, human; conditions: 50 nM
# Procedure: (§2) Enzymatic cleavage study of PSMA-1-MMAE-IR700 was performed as previously described. PSMA-1-MMAE-IR700 was incubated with activated human liver cathespin (Anthens Research and Technology, Anthens, GA) at 37° C. At different incubation time, 40 μL of the solution was placed into tubes loaded with 1 μL of 1 mM E64 protease inhibitor. The mixture was vortexed and then stored at −80° C. for future HPLC analysis. Studies were performed in triplicate. In vitro cellular uptake studies cells were plated on coverslips at about 60-70% confluency. Twenty-four hours later, cells were incubated with 50 nM of PSMA-1-MMAE-IR700. After incubation for various times (15 min, 30 min, 1 h and 4 h), cells were washed twice with cold RPMI 1640, fixed with 4% paraformaldehyde and counterstained with 4′,6-diamidino-2-phenylindole (DAPI). Images were taken using a Leica DM4000B fluorescence microscope (Leica Biosystems, Buffalo Gove, IL) at 40×. Blocking experiments were performed by co-incubation of cells with 50 nM of PSMA-1-MMAE-IR700 and 100× of PSMA-1 ligand. Studies were performed in triplicate.
# PC3pip tumors = test: In vivo antitumor efficacy studies with PDT; design: species or system mice
# Procedure: The effect of PSMA-1-MMAE-IR700 were tested in mice bearing PC3pip tumors. Animals with tumor size at about 100 mm3 were used for the study (tumor volume=Length×width2/2). Animals were divided into 7 groups: (1) mice receiving PBS; (2) mice receiving 100 nmol/kg PSMA-1-MMAE-IR700 with PDT; (3) mice receiving equal doses of PSMA-1-MMAE-IR700 to group 2, but not receiving PDT; (4) Mice receiving equal doses of PSMA-1-IR700 to group 2 with PDT treatment; (5) Mice receiving equal doses of PSMA-1-IR700 to group 2 without PDT; (6) mice receiving equal doses of PSMA-1-IR700 to group 2+free MMAE with PDT (MMAE normalized to that delivered by PSMA-1-MMAE-IR700); and (7) mice receiving equal doses of PSMA-1-IR700 to group 2+free MMAE without PDT. Each group had 5 mice. Animals received drugs through tail vein injection on day 0, 4, 8, 12 and 16 and treated with 50 J/cm2 of 690 nm light at 1 h post-injection on these injection days. The dose and schedule was based on previous PSMA-1-VcMMAE work and were not optimized. Animals were imaged before and after PDT. Mice were monitored every other day for 90 days. Animals were euthanized when tumors became too large (diameter >20 mm) or animals were moribund. Data were reported as body weight over time, tumor size over time and Kaplan-Meier survival plots.
# [5] = system: PSMA-positive PC3pip cells; test: In vitro uptake studies, Example 2, PC3pip; format: cell-based, human; conditions: 50 nM
# Procedure: as §2
smiles,measurement,setting,value
CC[C@H](C)[C@@H]([C@@H](CC(=O)N1CCC[C@H]1[C@H](OC)[C@@H](C)C(=O)N[C@H](C)[C@@H](O)c1ccccc1)OC)N(C)C(=O)[C@@H](NC(=O)[C@H](C(C)C)N(C)C(=O)OCc1ccc(NC(=O)[C@H](CCCNC(N)=O)NC(=O)[C@@H](NC(=O)CCCCCN2C(=O)CC(SC[C@H](NC(=O)[C@H](CCC(=O)O)NC(=O)[C@H](CCC(=O)O)NC(=O)[C@H](CCC(=O)O)NC(=O)CCCCCNC(=O)[C@H]3CC[C@H](CNC(=O)CC[C@H](NC(=O)N[C@@H](CCC(=O)O)C(=O)O)C(=O)O)CC3)C(=O)NCCCCCC(=O)N[C@@H](CCCCNC(=O)CCCCCNC(=O)OCCCOc3cccc4c5n6c(c34)=NC3=NC(=Nc4c7ccccc7c(n4[Si]6(O[Si](C)(C)CCC[N+](CCCS(=O)(=O)[O-])(CCCS(=O)(=O)O)CCCS(=O)(=O)O)O[Si](C)(C)CCC[N+](CCCS(=O)(=O)[O-])(CCCS(=O)(=O)O)CCCS(=O)(=O)O)N=C4N=C(N=5)c5ccccc54)c4ccccc43)C(N)=O)C2=O)C(C)C)cc1)C(C)C (stereo partly shown) [PSMA-1-MMAE-IR700],stability in PBS,[1],stable
same,ratio of absorbance to control groups (cell viability),[2]; 690 nm light 1 J/cm2,0.423
same,ratio of absorbance to control groups (cell viability),[2]; 690 nm light 3 J/cm2,0.208
same,ratio of absorbance to control groups (cell viability),[2]; without light,0.892
same,coefficient drug interaction (CDI),[2]; 1 J/cm2 light irradiation,0.609
same,coefficient drug interaction (CDI),[2]; 3 J/cm2 light irradiation,0.550
same,selectivity of killing PC3pip versus PC3flu cells,[2]; 72 h in the dark,50 fold
same,IC50,[3],8.42 ± 1.03 nM
same,fluorescence signal (uptake) in PC3flu cells,[4],no fluorescence signal was observed
same,"tumor growth, with light irradiation (PDT)","PC3pip tumors; 100 nmol/kg every 4 days, 5 doses, 50 J/cm^2 of 690 nm light",greatest tumor growth inhibition
same,"tumor growth, no light treatment","PC3pip tumors; 100 nmol/kg every 4 days, 5 doses, no light",significantly inhibited tumor growth
same,cure rate for tumors,"PC3pip tumors; 100 nmol/kg with light irradiation, 90-day period",60%
same,histological analysis of major organs on day 30,"PC3pip tumors; liver, lung, heart, spleen, kidney, salivary gland and prostate",did not cause systemic toxicity
same,body weight loss,PC3pip tumors; treatment groups,did not cause any body weight loss
same,fluorescence signal (uptake) in PC3pip cells,[5],observed as early as 15 min
same,fluorescence signal in PC3pip cells with 100× of PSMA-1 ligand,[5]; co-incubation,completely blocked
